The experiment relates to L1210 leukemia ip in BDF1 mice, survival T/C. As to the kind of experiment: NCI In Vivo Anticancer Drug Screen. Data for tumor model L1210 Leukemia (intraperitoneal) in B6D2F1 (BDF1) mice. Particulars: endpoint: mean survival time, higher = longer survival. The procedure, abridged:
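Transplantable tumor model; survival measured in treated vs vehicle control mice. Value = treated/control.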

Setting [1] is: dose: 50.0 mg/kg/injection, schedule: Q01DX009 (ip), vehicle: saline.
The mark [2] stands for this setting: dose: 100.0 mg/kg/injection, schedule: Q01DX001 (ip), vehicle: saline.
The mark [3] stands for this setting: dose: 200.0 mg/kg/injection, schedule: Q01DX001 (ip), vehicle: saline.
Where [4] appears, read: dose: 100.0 mg/kg/injection, schedule: Q01DX009 (ip), vehicle: saline.
Where [5] appears, read: dose: 100.0 mg/kg/injection, schedule: Q01DX009 (ip), vehicle: Klucel (hydroxypropylcellulose) (HPC).
The mark [6] stands for this setting: dose: 200.0 mg/kg/injection, schedule: Q01DX009 (ip), vehicle: Klucel (hydroxypropylcellulose) (HPC).
[7] abbreviates: dose: 100.0 mg/kg/injection, schedule: Q04DX003 (ip), vehicle: saline with Tween-80.
Where [8] appears, read: dose: 200.0 mg/kg/injection, schedule: Q04DX003 (ip), vehicle: saline with Tween-80.
[9] abbreviates: dose: 400.0 mg/kg/injection, schedule: Q04DX003 (ip), vehicle: saline with Tween-80.

Several values for one entry are separate records, joined by “and”; a condition that tells them apart may be missing. Equal values may be shown once. Toxic doses and inconclusive results are not listed.

Consider `C1OC1CN1CCN(CC2CO2)CC1` (stereo not given), for which the T/C runs as follows: (dose: 1.2 mg/kg/injection, schedule: Q01DX009 (ip), vehicle: saline) 101 % of control; (dose: 1.8 mg/kg/injection, schedule: Q01DX009 (ip), vehicle: saline) 117 % of control; (dose: 2.0 mg/kg/injection, schedule: Q03HX008 (ip), vehicle: saline) 117 % of control; (dose: 2.0 mg/kg/injection, schedule: Q03HX016 (ip), vehicle: saline) 102 % of control; (dose: 2.0 mg/kg/injection, schedule: Q03HX024 (ip), vehicle: saline) 121 % of control; (dose: 3.5 mg/kg/injection, schedule: Q01DX009 (ip), vehicle: saline) 118 % of control. Moreover, the T/C (dose: 4.0 mg/kg/injection, schedule: Q03HX008 (ip), vehicle: saline) was 114 % of control; the T/C (dose: 4.0 mg/kg/injection, schedule: Q03HX016 (ip), vehicle: saline) was 114 % of control; the T/C (dose: 6.25 mg/kg/injection, schedule: Q01DX009 (ip), vehicle: saline) was 121 % of control; the T/C (dose: 8.0 mg/kg/injection, schedule: Q01DX009 (sc), vehicle: saline) was 101 % of control; the T/C (dose: 8.0 mg/kg/injection, schedule: Q03HX008 (ip), vehicle: saline) is 114 % of control; the T/C (dose: 8.0 mg/kg/injection, schedule: Q03HX016 (ip), vehicle: saline) was 94 % of control. Also, the T/C runs as follows: (dose: 12.5 mg/kg/injection, schedule: Q01DX009 (ip), vehicle: saline) 164 % of control; (dose: 15.0 mg/kg/injection, schedule: Q01DX009 (ip), vehicle: saline) 157 % of control; (dose: 16.0 mg/kg/injection, schedule: Q01DX001 (sc), vehicle: saline) 106 % of control; (dose: 16.0 mg/kg/injection, schedule: Q01DX009 (sc), vehicle: saline) 106 % of control; (dose: 30.0 mg/kg/injection, schedule: Q01DX009 (ip), vehicle: saline) 208 % of control; (dose: 32.0 mg/kg/injection, schedule: Q01DX001 (oral), vehicle: saline) 113 % of control. The T/C (dose: 32.0 mg/kg/injection, schedule: Q01DX001 (sc), vehicle: saline) was 98 % of control; the T/C (dose: 32.0 mg/kg/injection, schedule: Q01DX009 (ip), vehicle: saline) is 102 % of control; the T/C (dose: 32.0 mg/kg/injection, schedule: Q01DX009 (oral), vehicle: saline) was 153 % of control; the T/C (dose: 32.0 mg/kg/injection, schedule: Q04DX003 (ip), vehicle: saline) is 165 % of control; the T/C under setting [1] is 111 % of control; the T/C (dose: 60.0 mg/kg/injection, schedule: Q01DX009 (ip), vehicle: saline) was 92 % of control. Also, the T/C is 123 % of control (dose: 64.0 mg/kg/injection, schedule: Q01DX001 (oral), vehicle: saline); 113 % of control (dose: 64.0 mg/kg/injection, schedule: Q01DX001 (sc), vehicle: saline); 165 % of control (dose: 64.0 mg/kg/injection, schedule: Q01DX009 (oral), vehicle: saline); 160 % of control (dose: 64.0 mg/kg/injection, schedule: Q01DX009 (sc), vehicle: saline); 176 % of control under setting [2]; 182 % of control (dose: 120.0 mg/kg/injection, schedule: Q01DX001 (ip), vehicle: saline). Besides, the T/C by setting is: (dose: 128.0 mg/kg/injection, schedule: Q01DX001 (sc), vehicle: saline) 116 % of control; (dose: 180.0 mg/kg/injection, schedule: Q01DX001 (ip), vehicle: saline) 168 % of control; under setting [3], 90 % of control; (dose: 256.0 mg/kg/injection, schedule: Q01DX001 (sc), vehicle: saline) 151 % of control.
`CC1=Cc2ccc(C)cc2C(=O)C1=O`: the T/C (dose: 6.25 mg/kg/injection, schedule: Q04DX003 (ip), vehicle: saline with Tween-80) was 94 % of control.
As for `CC(C)CCC(=O)OC1CCC2(C)C(=CCC3C2CCC2(C)C(O)CCC32)C1` (stereo not given), the T/C (dose: 100.0 mg/kg/injection, schedule: Q01DX001 (ip), vehicle: saline with Tween-80) is 92 % of control; the T/C (dose: 200.0 mg/kg/injection, schedule: Q01DX001 (ip), vehicle: saline with Tween-80) is 93 % of control; the T/C (dose: 400.0 mg/kg/injection, schedule: Q01DX001 (ip), vehicle: saline with Tween-80) was 101 % of control.
For `O=C(C[n+]1ccccc1)N/N=C/c1ccc(Cl)c(Cl)c1`, the T/C is 94 % of control (dose: 25.0 mg/kg/injection, schedule: Q01DX009 (ip), vehicle: saline); 102 % of control under setting [1]; 102 % of control under setting [4].
As to `CN(N)c1nc2c(N)ncnc2n1C1OC(CO)C(O)C1O` (stereo not given), the T/C (dose: 12.5 mg/kg/injection, schedule: Q01DX005 (ip), vehicle: saline) is 97 % of control; the T/C (dose: 25.0 mg/kg/injection, schedule: Q01DX005 (ip), vehicle: saline) is 108 % of control; the T/C (dose: 50.0 mg/kg/injection, schedule: Q01DX005 (ip), vehicle: saline) is 100 % of control.
For `CC(=O)Nc1cccc(Br)c1`, the T/C (dose: 50.0 mg/kg/injection, schedule: Q01DX009 (ip), vehicle: Klucel (hydroxypropylcellulose) (HPC)) was 101 % of control; the T/C under setting [5] was 106 % of control and 90 % of control; the T/C under setting [6] was 95 % of control and 102 % of control.
Consider `CC(=O)Nc1ccc(C=Nc2c(N)n(C)c(=O)n(C)c2=O)cc1`, for which the T/C is 94 % of control (dose: 50.0 mg/kg/injection, schedule: Q01DX001 (ip), vehicle: carboxymethylcellulose (CMC)); 96 % of control (dose: 100.0 mg/kg/injection, schedule: Q01DX001 (ip), vehicle: carboxymethylcellulose (CMC)); 94 % of control (dose: 200.0 mg/kg/injection, schedule: Q01DX001 (ip), vehicle: carboxymethylcellulose (CMC)); 90 % of control (dose: 400.0 mg/kg/injection, schedule: Q01DX001 (ip), vehicle: carboxymethylcellulose (CMC)).
Take `COc1ccc(/C=C(\C#N)c2ccc(C)cc2)cc1OC`: the T/C is 102 % of control under setting [7], 100 % of control under setting [8] and 100 % of control under setting [9].
As to `CC(=O)ONc1nc(C)c(CCC2OCCO2)c(=O)[nH]1`, the T/C runs as follows: under setting [5], 95 % of control; (dose: 100.0 mg/kg/injection, schedule: Q04DX003 (ip), vehicle: Klucel (hydroxypropylcellulose) (HPC)) 105 % of control; under setting [6], 102 % of control; (dose: 200.0 mg/kg/injection, schedule: Q04DX003 (ip), vehicle: Klucel (hydroxypropylcellulose) (HPC)) 105 % of control; (dose: 400.0 mg/kg/injection, schedule: Q01DX009 (ip), vehicle: Klucel (hydroxypropylcellulose) (HPC)) 95 % of control; (dose: 400.0 mg/kg/injection, schedule: Q04DX003 (ip), vehicle: Klucel (hydroxypropylcellulose) (HPC)) 98 % of control.
For `O=c1oc(-c2ccccc2)c(-c2ccccc2)o1`, the T/C (dose: 100.0 mg/kg/injection, schedule: Q04DX002 (ip), vehicle: other) was 100 % of control; the T/C (dose: 200.0 mg/kg/injection, schedule: Q04DX002 (ip), vehicle: other) was 103 % of control; the T/C (dose: 400.0 mg/kg/injection, schedule: Q04DX002 (ip), vehicle: other) is 96 % of control.
`Brc1ccc(C2CCCCC2)cc1`: the T/C under setting [7] is 97 % of control, the T/C under setting [8] is 93 % of control and the T/C under setting [9] is 101 % of control.
As to `CCOC(=O)/C(C#N)=C1/CCCN1`, the T/C was 97 % of control under setting [4]; 100 % of control (dose: 200.0 mg/kg/injection, schedule: Q01DX009 (ip), vehicle: saline); 108 % of control (dose: 400.0 mg/kg/injection, schedule: Q01DX009 (ip), vehicle: saline).
`C=CCNC(=O)Oc1cccc(NC(=O)C(C)CCC)c1` (stereo not given): the T/C is, setting by setting: (dose: 100.0 mg/kg/injection, schedule: Q01DX009 (ip), vehicle: saline with Tween-80) 101 % of control; (dose: 200.0 mg/kg/injection, schedule: Q01DX009 (ip), vehicle: saline with Tween-80) 95 % of control; (dose: 400.0 mg/kg/injection, schedule: Q01DX009 (ip), vehicle: saline with Tween-80) 108 % of control.
As for `COc1cccc(CNC(C)(CO)CO)c1OC`, the T/C was 98 % of control (dose: 50.0 mg/kg/injection, schedule: Q01DX001 (ip), vehicle: saline); 104 % of control under setting [2]; 102 % of control under setting [3].

The record behind these values is PubChem BioAssay AID248 (DTP/NCI, 2004).
